Reference: article PMC9737972, “Dual LSD1 and HDAC6 Inhibition Induces Doxorubicin Sensitivity in Acute Myeloid Leukemia Cells” (Cancers, 2022)

Legend:
N-ter-GST-HDAC-6 = biological target: T1, N-ter-GST-HDAC-6 (Homo sapiens, UniProt Q9UBN7); assay: HDAC-Glo I/II enzyme assay, HDAC6; type: biochemical
T1 construct: GST (N); purchased BPS Bioscience 50006
T1 sequence (Q9UBN7 1-1215): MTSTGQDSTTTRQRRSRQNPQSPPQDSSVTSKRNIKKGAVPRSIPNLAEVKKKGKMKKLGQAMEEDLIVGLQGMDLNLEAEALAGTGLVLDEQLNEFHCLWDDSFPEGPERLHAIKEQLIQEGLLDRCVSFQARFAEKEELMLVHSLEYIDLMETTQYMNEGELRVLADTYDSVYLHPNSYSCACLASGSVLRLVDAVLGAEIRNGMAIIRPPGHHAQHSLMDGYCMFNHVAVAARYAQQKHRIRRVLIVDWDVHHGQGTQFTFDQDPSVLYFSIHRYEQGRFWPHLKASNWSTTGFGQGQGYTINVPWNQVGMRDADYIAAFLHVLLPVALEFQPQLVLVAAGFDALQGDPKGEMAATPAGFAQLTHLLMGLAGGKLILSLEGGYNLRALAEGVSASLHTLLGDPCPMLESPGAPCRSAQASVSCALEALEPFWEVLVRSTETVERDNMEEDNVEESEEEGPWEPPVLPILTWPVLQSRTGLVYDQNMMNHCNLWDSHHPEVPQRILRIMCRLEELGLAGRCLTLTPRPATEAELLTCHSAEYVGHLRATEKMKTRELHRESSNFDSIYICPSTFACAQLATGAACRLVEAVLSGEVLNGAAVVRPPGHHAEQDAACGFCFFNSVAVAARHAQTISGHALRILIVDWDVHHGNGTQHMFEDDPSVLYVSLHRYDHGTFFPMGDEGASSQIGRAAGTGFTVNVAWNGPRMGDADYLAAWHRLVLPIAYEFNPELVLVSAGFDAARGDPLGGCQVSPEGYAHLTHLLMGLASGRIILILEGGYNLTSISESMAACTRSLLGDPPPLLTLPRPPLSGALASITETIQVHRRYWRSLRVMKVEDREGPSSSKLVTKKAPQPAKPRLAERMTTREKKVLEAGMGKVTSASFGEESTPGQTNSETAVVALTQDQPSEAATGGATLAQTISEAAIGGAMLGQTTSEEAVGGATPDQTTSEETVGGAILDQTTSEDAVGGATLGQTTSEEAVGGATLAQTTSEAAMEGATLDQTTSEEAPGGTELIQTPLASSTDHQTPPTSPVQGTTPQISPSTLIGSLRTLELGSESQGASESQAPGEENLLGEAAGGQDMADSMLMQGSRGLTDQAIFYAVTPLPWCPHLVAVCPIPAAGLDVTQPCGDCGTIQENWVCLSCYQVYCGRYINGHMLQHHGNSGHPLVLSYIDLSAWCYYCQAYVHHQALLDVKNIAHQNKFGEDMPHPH

THP-1 cells [1] = assay: Annexin V/7-AAD staining (flow cytometry); type: cell-based; conditions: sublethal concentration (5 μM)
Procedure: Treated cells were centrifuged at 300× g for 5 min, and the pellet was resuspended with 1% FBS in PBS (5 × 10^5 cells/mL). Annexin V dye (Merck Millipore, Burlington, MA, USA, MCH100105) was mixed with the cell suspension in a 1:1 ratio and the mixture incubated at RT for 20 min.

THP-1 cells [2] = assay: Caspase 3/7 and 7-AAD staining (flow cytometry); conditions: sublethal concentration (5 μM)
MDA-MB-231 = assay: Wound healing assay, MDA-MB-231; type: cell-based; conditions: 4 μM, 72 h, 1% FBS
Procedure: Figure S20. Wound healing assay with iDual and ricolinostat. (A) MDA-MB-231 and (B) DU-145 […]
and ricolinostat for 72 h cells grown in relative medium with (1%) FBS conditions. Wound healing is photographed with Nikon Eclipse TS 100 microscope. Wound/healed area is quantified using Image […]

[3] = tested on: LSD1 and HDAC substrates in THP-1 cells; assay: Western blot of methylation and acetylation levels of LSD1 and HDAC substrates; type: cell-based; conditions: 4 μM
LSD1 = LSD1 (Homo sapiens, UniProt O60341); assay: Cellular thermal shift assay (CETSA), LSD1; type: cell-based; design: endogenous in cells; host or cells: THP-1; conditions: THP-1 cells, 1 h; 4 μM (methods, Figure 2), Figure S14 legend 500 nM
Procedure: THP-1 cells, 1 × 10^7 cells at a density of 1 × 10^6 cells/mL, were treated with 4 μM of test compounds (1 h, 37 °C, 5% CO2). Cells were centrifuged, and the pellet was resuspended with 1 × Phosphate Buffer Saline (Gibco, Grand Island, NY, USA, #10010023) containing 1 × Protease Inhibitor Cocktail (Cell Signaling Technology, Beverly, MA, USA, #5871) and 1 mM phenylmethylsulfonyl fluoride (PMSF, Sigma Aldrich, St. Louis, MO, USA, #10837091001). The suspension volume was divided equally and heated for 3 min at 43–64 °C in a T100 Thermal Cycler (Bio-rad, Hercules, CA, USA). For protein extraction, cells were snap-frozen using liquid nitrogen, thawed twice (25 °C, 1 min), then centrifuged (20,000× g, 15 min, 4 °C). Following centrifugation, protein containing supernatants were denatured at 70 °C for 10 min and loaded on SDS-PAGE gels (Bio-Rad, Hercules, CA, USA, 161-0317). After electrophoresis (100 V and 60 min), proteins were transferred onto PVDF membrane (Bio-Rad #1620177) at 200 mA for 180 min and immunoblotted with primary antibodies (1:10,000 dilution for anti-LSD1 Antibody ab129195 [EPR6825], 1:1000 dilution for Anti-HDAC6 Antibody CST 7558, 1:1000 dilution for Anti-HDAC1 Antibody ab53091, 1:1000 dilution for Anti-HDAC8 Antibody ab187139, 1:5000 dilution for Anti-beta Actin Antibody ab8227) overnight at 4 °C. The next day, membranes were incubated with HRP-conjugated secondary antibodies (1:5000 dilution for Abcam, Cambridge, UK, ab205718) for 1 h at room temperature. The signal was detected with BIORAD Chemi-Doc XRS+ System and by using Immobilon Forte Western HRP Substrate (WBLUF0500).

normal RPE-1 cells = assay: Cell viability of normal RPE-1 cells (CTG); type: cell-based; conditions: 120 h

Row | Structure (SMILES) | HDAC6/HDAC1 isoform selectivity (N-ter-GST-HDAC-6) | IC50 (N-ter-GST-HDAC-6; ± standard error, three independent measurements) | apoptosis by annexin V/7-AAD staining, compound alone (THP-1 cells [1]) | apoptosis by caspase activity, compound alone (THP-1 cells [2]) | wound healing capacity MDA-MB-231 (MDA-MB-231) | levels of the histone substrate H3K4me2 ([3]; 24 h) | nuclear histone H3 acetylation (H3K18ac and H3K27ac levels), change vs DMSO ([3]; 24 h (ricolinostat 0.75 μM or 4 μM)) | thermal stabilization of LSD1 (CETSA) (LSD1) | toxicity on normal RPE-1 cells (normal RPE-1 cells)
1 | O=C(NO)c1ccc(CN2CCC(CNC3(c4ccccc4)CC3)CC2)cc1 [iHDAC6] | > 30 fold | 230 ± 20 nM | – | – | – | – | – | – | –
2 | O=C(NO)c1ccc(CN2CCC(CN[C@@H]3C[C@H]3c3ccccc3)CC2)cc1 (relative stereo) [iDual] | – | – | did not induce apoptosis | did not induce apoptosis | slowed down | increase | two-fold | increased thermal stability | no significant toxicity
